Entries after “also recorded” stand apart in the source; their conditions may differ. Read-outs that look alike come from different tables or passages of the source.
What was measured:
[1] = tested on: V79 (Chinese hamster lung) cells; conditions: for LD50 V79: Chinese hamster, 24 h; for Selectivity index LD50 (V79)/IC50 (3D7): V79 vs 3D7; for Selectivity index LD50 (V79)/IC50 (Dd2): V79 vs Dd2
Procedure: (§1) Cytotoxicity was assessed on the mammalian cell lines HepG2-A16 (human hepatoma) and V79 (Chinese hamster lung), using a MTT based assay, as previously described. […] V79 and HepG2 cell lines were incubated for 24 and 48 h, respectively (media changed at 24 h intervals). Absorbance was read at 570 nm on a multi-mode microplate reader (Triad, Dynex Technologies), to produce a log dose-dependence curve. The LD50 value for each compound was estimated by non-linear interpolation of the dose-dependence curve (GraphPad Software).

[2] = tested on: HepG2-A16 (human hepatoma) cells; conditions: for LD50 HepG2: human, 48 h; for Selectivity index LD50 (HepG2)/IC50 (3D7): HepG2 vs 3D7; for Selectivity index LD50 (HepG2)/IC50 (Dd2): HepG2 vs Dd2
Procedure: as §1

[3] = tested on: P. falciparum Dd2 (chloroquine-resistant, mefloquine-resistant); assay: SYBR Green I assay, IC50, strain Dd2; type: cell-based, Plasmodium falciparum; conditions: for IC50: Plasmodium falciparum, DD2, strain Dd2, read-out: P. falciparum IC50 ± SD, Dd2
Procedure: (§2) Staging and parasitaemia were determined by light microscopy of Giemsa-stained thin blood smears. Anti-malarial activity was determined using the SYBR Green I assay, as previously described.

[4] = tested on: P. falciparum 3D7 (chloroquine and mefloquine sensitive); assay: SYBR Green I assay, IC50, strain 3D7; type: cell-based, Plasmodium falciparum; conditions: Plasmodium falciparum, 3D7, strain 3D7; read-out: P. falciparum IC50 ± SD, 3D7
Procedure: as §2

[5] = Solubility remark in the IC50 table; type: physicochemical; design: key: ?: Low solubility; conditions: symbol printed in the IC50 cells
Source text: Supplement 12936_2018_2281_MOESM1_ESM.docx, table 1: Table 1: Antiplasmodial activity in vitro (IC50) against resistant and sensitive P. falciparum strains. | column: P. falciparum IC50 ± SD (nM)

Swiss albino mice = assay: Acute toxicity observation in treated mice; type: in vivo; conditions: 50 mg/kg/day oral, monitored daily
Procedure: (§3) In vivo tests were performed following the Guidelines for Ethical Conduct in The Care and Use of Animals of the Federal University of Rio Grande do Norte—Brazil (CEUA/UFRN/46/2013). Evaluation of anti-malarial activity in vivo was carried out using the Peters’ 4-day suppressive test, with modifications, as previously described. Swiss albino mice were infected with Plasmodium berghei NK65 and randomly allocated to groups of five animals. Animals were treated with 50 mg/kg/day of each of the tested compounds (dissolved in PBS containing 1% DMSO), administrated orally, for four consecutive days. The control group was treated with a solution of PBS/1% DMSO. On days 5 (D5), 7 (D7) and 10 (D10) after parasite inoculation, tail blood smears were Giemsa-stained and examined microscopically to estimate parasitaemia. Acute toxicity testing was carried out to determine adverse effects due to compounds (including weight loss, hair appearance, skin wounds and behavioural changes), and recorded daily.

Plasmodium berghei NK65 = assay: Peters' 4-day suppressive test in Swiss albino mice; type: in vivo; conditions: for inhibition in vivo at 50 mg/kg/day: Plasmodium berghei, po
Procedure: as §3

[6] = tested on: P. falciparum IPC4912 (artemisinin-resistant, K13 I543T); assay: SYBR Green I assay, IC50, strain IPC4912; type: cell-based, Plasmodium falciparum
Procedure: Staging and parasitaemia were determined by light microscopy of Giemsa-stained thin blood smears. Anti-malarial activity was determined using the SYBR Green I assay, as previously described. Briefly, early ring stage parasites (> 80% of rings) were challenged with a 1:3 serial dilution of each compound, in concentrations ranging from 10,000–0.169 nM. Fluorescence intensity was measured with a multi-mode microplate reader (Triad, Dynex Technologies), with excitation and emission wavelengths of 485 and 535 nm, respectively, and analysed by nonlinear regression using GraphPad Prism to determine IC50 values.

[7] = tested on: P. falciparum IPC5202 (artemisinin-resistant, K13 R539T); assay: SYBR Green I assay, IC50, strain IPC5202; type: cell-based, Plasmodium falciparum
Procedure: as §2

| Structure (SMILES) | LD50 V79 [1] | LD50 HepG2 [2] | IC50 [3] | IC50 [4] | Selectivity index LD50 (V79)/IC50 (3D7) [1] | Selectivity index LD50 (V79)/IC50 (Dd2) [1] | Selectivity index LD50 (HepG2)/IC50 (3D7) [2] | Selectivity index LD50 (HepG2)/IC50 (Dd2) [2] | also measured |
| --- | --- | --- | --- | --- | --- | --- | --- | --- | --- |
| CC(C)(C)OC(=O)NCCCCN [LC64, tert-butyl(4-aminobutyl)carbamate] | > 1 mM | 1.0 mM | > 10000 nM | > 10000 nM | – | – | – | – | – |
| NCC1CCC2(CC1)OOC1(O2)C2CC3CC(C2)CC1C3 (centres unmarked) [LC95] | > 1 mM | 1.0 mM | 56.3 ± 1 nM | 29.6 ± 5.18 nM | 3441.7 | 1784.7 | 3441.7 | 1784.7 | – |
| NCCCCNC1CCC2(CC1)OOC1(O2)C2CC3CC(C2)CC1C3 (centres unmarked) [MIS16] | > 1 mM | 1.0 mM | – | – | – | – | – | – | solubility remark (no IC50 obtained) [5]: ? |
| CC(C)(C)OC(=O)NCCCCNC(=O)C1CCC2(CC1)OOC1(O2)C2CC3CC(C2)CC1C3 (centres unmarked) [MIS13] | > 1 mM | 0.3 mM | – | – | 135135.1 | 294117.6 | 44594.6 | 97058.8 | Selectivity index LD50 (V79)/IC50 (IPC4912) ([1]; V79 vs IPC4912): 3333333.3; Selectivity index LD50 (V79)/IC50 (IPC5202) ([1]; V79 vs IPC5202): 588235.2; Selectivity index LD50 (HepG2)/IC50 (IPC4912) ([2]; HepG2 vs IPC4912): 1100000.0; Selectivity index LD50 (HepG2)/IC50 (IPC5202) ([2]; HepG2 vs IPC5202): 194117.6; decrease in HepG2 survival ([2]; maximum dose of 1 mM): ~30%; adverse effects in vivo (Swiss albino mice): no adverse effects were observed; in vivo outcome against P. berghei in words (Plasmodium berghei NK65; 50 mg/kg/day oral for 4 days, followed to day 10): by day 10 the five mice were cured; also recorded: totally suppressed P. berghei parasitaemia; inhibition in vivo at 50 mg/kg/day (Plasmodium berghei NK65; 120 h, read-out: % inhibition of parasite growth, Day 5): 92.6%; inhibition in vivo at 50 mg/kg/day (Plasmodium berghei NK65; 168 h, read-out: % inhibition of parasite growth, Day 7): 98.6%; inhibition in vivo at 50 mg/kg/day (Plasmodium berghei NK65; 240 h, read-out: % inhibition of parasite growth, Day 10): 100%; mice presenting parasitaemia, day 5 (Plasmodium berghei NK65; groups of five mice, 50 mg/kg/day oral, day 5): 1/5; Mean parasitaemia ± SD, Day 5 (Plasmodium berghei NK65; mice, 50 mg/kg/day oral for 4 days, day 5): 0.11 ± 0.19%; Mean parasitaemia ± SD, Day 7 (Plasmodium berghei NK65; mice, 50 mg/kg/day oral for 4 days, day 7): 0.05 ± 0.10%; Mean parasitaemia ± SD, Day 10 (Plasmodium berghei NK65; mice, 50 mg/kg/day oral for 4 days, day 10): 0%; Resistance Index RIc = IC50 (IPC4912)/IC50 (3D7) ([6]; IPC4912 vs 3D7): 0.04; IC50 ([6]; Plasmodium falciparum, read-out: P. falciparum IC50 ± SD, IPC4912): 0.3 ± 0.3 nM; Resistance Index RIb = IC50 (IPC5202)/IC50 (3D7) ([7]; IPC5202 vs 3D7): 0.23; IC50 ([7]; Plasmodium falciparum, read-out: P. falciparum IC50 ± SD, IPC5202, strain IPC5202): 1.7 ± 1.1 nM |
| O=c1nn[nH]n1-c1ccccc1 [LC133, 1-phenyl-1H-tetrazol-5-one] | > 1 mM | 1.0 mM | > 10000 nM | > 10000 nM | – | – | – | – | antiplasmodial activity of building blocks in words ([3]; tested separately, Dd2 and 3D7 (Additional file 1)): devoid of antiplasmodial activity |
| O=C(Nc1nnn[nH]1)C1CCC2(CC1)OOC1(O2)C2CC3CC(C2)CC1C3 (centres unmarked) [LC142] | > 1 mM | 1.0 mM | 107 ± 45.4 nM | 117 ± 33.2 nM | 8568.9 | 9354.5 | 8568.9 | 9354.5 | Resistance Index RIa = IC50 (Dd2)/IC50 (3D7) ([3]; Dd2 vs 3D7): 0.9 |

— article PMC5883364 (Malaria Journal, 2018)
